The results in this text go back to patent US6495584B1, “Use of 3-(1H-imidazol-4-ylmethyl)-indan-5-ol in the manufacture of a medicament for intraspinal, intrathecal or epidural administration” (Orion Corporation, priority 1998, dated 2002).

The nature of one data set: physchem. The method, then: The hydrochloride salts of the above compounds were shaken for 90 minutes in a separatory funnel at room temperature with equal volumes (1:1, v/v) of an organic phase (water saturated 1-octanol) and an aqueous solution (0.1 M HCI or 67 mM phosphate buffer pH 7.4), separating the two phases. The quantitations of the amounts of the studied compounds were performed by the RP-HPLC (reverse phase high pressure liquid chromatography) technique. […] As a mobile phase, methanol: 15 mM phosphate buffer pH2 at the ratio 50:50 (v/v) was used.
The partition coefficient (P) is a ratio of the equilibrium concentrations of a solute in a lipophilic environment (1-octanol) and water (P=coct/cwater). The logarithm of the partition coefficient (logP) is used as a lipophilicity parameter for a neutral molecule. D is the partition coefficient measured at a pH where the molecules are partly or totally ionized.

Data set [1] relates to rat. The data set can be described thus: Tail-flick analgesia test. The class given is in vivo. On the procedure: (§1) There were 8 rats in each group tested.
Tail-flick analgesia was tested by a tail-flick analgesy meter (Ugo Basile, Italy). The analgesia testing was done no earlier than four days after the catheterization. The rats were always habituated to the immobilization chambers that were used in the analgesia measurements. The tail of the rat was outside the chamber and it was placed on the heating spot of the apparatus. Thus, the hot infrared beam would hit the tail. When the rat reacted and moved the tail away from the beam, the analgesy meter automatically measured the latency of the tail-withdrawal. The tail-flick measurement was always repeated three times, one after another, to diminish the effect of a possible unspecific reaction. […] The maximal latency (cut-off time) was set to 5 seconds in order to prevent burns of the tail. The predrug tail-flick latencies were first measured, and then the rats were administered 10 μl of the drug solution by a Hamilton syringe. Immediately thereafter the catheter was washed with 10 μl of sterile saline, and the tip was sealed by a lighter. The analgesia was tested after 30 minutes from the administration of the drug by measuring tail-flick analgesia as described above.
The tail-flick analgesia data were represented as MPE% values (maximum possible effect %). The tail-flick latencies (mean of three measurements) were calculated as MPE% values as follows: (postdrug latency−predrug latency)/(cut-off time−predrug latency)×100%. The dose-response curves were drawn of the MPE% values, and the dose was on a logarithmic scale (see FIG. 1). […] 1.03 (San Diego, USA) software.
(§2) The analgesic activity and sedative effect after intravenous (to the tail vein) and subcutaneous administration were studied according to the methods described in Example 2.

The next data set can be described thus: in vivo. The following applies: Sprague-Dawley, rat. The method, then: as §1
(§3) Sedative effects (effects on motor activity) were measured in a polypropylene animal cage (38×22×15 cm) with a transparent polypropylene lid by Photobeam Activity System (PAS, Cage Rack, San Diego Instruments, San Diego, USA). The system consists of 16 separate enclosures connected to a computer control unit. There were three photobeams in each enclosure. The enclosures surrounded the cage at the height of 5 cm. The breaking of beams was counted as locomotor activity.
as §2

Data set [2] deals with rat. The data set can be described thus: in vivo. The method, then: as §1, §3, §2
In data set [3] the test system is rat. The settings on record: Sprague-Dawley, in vivo.
Text: (§4) The rats (Sprague-Dawley, B&K, Sollentuna, Sweden) were anaesthetized by midazolam and fentanyl-fluanisone combination anaesthesia and then chronically catheterized according to the method described by Yaksh and Rudy (Physiology & Behaviour 17,1031-1036, 1976). Briefly, the atlanto-occipital membrane of the spine (directly below the skull) was incised. A polyethylene catheter (PE10 Intramedic, USA) filled with sterile saline was carefully and slowly pushed 8 cm into the spinal cavity. The end of the catheter is known to reach the close proximity of the lumbar enlargement of the spine. The location of the end of the catheter was tested by administering 0.5 mg lidocain approximately 3 days after catheterization. If both hindlegs were paralyzed, the rat was used in the drug tests.
Effects on gastrointestinal motility were measured in separate animals as follows (the charcoal propulsion test). The rats (8/group) were fasted overnight and were randomized according to the latin square design. 30 minutes after the administration of the drugs, a 10% charcoal suspension in 0.25% Na-carboxy-methylcellulose was administered perorally by a gavage. […] The distance of the charcoal suspension from the pylorus in the intestine was measured. […] The ED50 value of the dose-response graph was determined by the Graph Pad Prism v. […]
In data set [4] the test system is rat. Put plainly: Motor coordination: rotarod treadmill. The following applies: intrathecal, 15 minutes after injection. Background: Falling from the rotarod earlier than controls is read as motor impairment.
Text: as §4
(§5) The effect on motor coordination was evaluated by a rotarod treadmill for rats (Ugo Basile, Italy). It consists of four drums (diameter of 70 mm) separated by five flanges. The drums were adjusted to rotate 4 revolutions per minute. The rod was rotated against the direction of the rat, so it had to walk forward to stay on the rod. […]
(§6) Fifteen minutes after the drug injection, the rat was placed on the rotarod apparatus, and the falling time was measured. […] The dose-response curves were drawn on a logarithmic scale, and the ED50 values were determined graphically from these.
In data set [5] the test system is rat. The settings on record: Sprague-Dawley, in vivo, 15 min.
Text: as §4, §5, §6

Read-outs that look alike come from different tables or passages of the source.

A word on the logD: it is the decadic logarithm of the distribution of all forms, ionised or not, between an organic phase and buffer at a given pH. High values mean higher lipophilicity, low ones lower lipophilicity. The ED50 is the dose at which the effect has come halfway, by size or by number of responders. High values mean a need for a large dose, low ones an effect at a small dose. Take `Oc1ccc2c(c1)C(Cc1c[nH]cn1)CC2` (centres unmarked) [Compound A, 3-(1H-imidazol-4-ylmethyl)-indan-5-ol]: the logD at 90 min in “physchem” (pH 1) is -0.69; in “physchem” (pH 7.4), 1.91. Besides, the ED50 in the data set with rat [1] (central, intrathecal (it), Table 2 result per rat multiplied by 3) is 0.0021 mg/kg; in the data set with rat [1] (intravenous (iv)), above 0.03 mg/kg; with rat [1] (subcutaneous (sc)), above 0.3 mg/kg. In the data set with rat [1] (intrathecal, 30 minutes after administration), the “ED50 Analgesia (tail-flick test)” value is recorded as 0.7 µg/rat. Moreover, the ED50 at 10 min in the data set “in vivo” was found to be 0.09 mg/kg; in the data set “in vivo” (sc) it was 0.08 mg/kg. For the same molecule, the “Sedation at an analgesic dose” value in the data set on rat [2] is given as “not to induce sedation”. The molecule further showed an ED50 Inhib. of GI motility with rat [3] of 5.7 µg/rat. The molecule further showed an ED50 Loss of motor coordin. (decrease in rotarod performance) in the data set on rat [4] above 30 µg/rat.
As to `Clc1cccc(Cl)c1N=C1NCCN1` [Compound B, clonidine, reference compound], in the data set with rat [5], the “ED50 Loss of motor coordin. (decrease in rotarod performance)” value is recorded as above 10 g/rat. Further, the ED50 Inhib. of GI motility in the data set on rat [3] was determined as 3.5 µg/rat.
Regarding “clonidine [Compound B, reference compound]”, in the data set on rat [1] (in vivo), the “ED50 Analgesia (tail-flick test)” value is 6.4 µg/rat.
